Values quoted from earlier work, collected in patent US20160101079A1 (priority 2014, published 2016).

Key:
[1] = test system: glycoprotein shedding (Ebola virus GP; TACE)
[2] = test system: rotaviruses; settings: 10 mM
[3] = test system: Human Foreskin (HF) cells infected with HSV-2-strain G; settings: 3 to 1.5 mM

In the case of `CNC(=O)[C@@H](NC(=O)[C@H](CC(C)C)[C@H](O)C(=O)NO)C(C)(C)C` [BB2516], the “concentration at which inhibition of GP shedding was observed” value (shortened to “concentration at which inhibition”) [1] is listed as 0.5 mM.
For `O=C(O)CN(CCN(CC(=O)O)CC(=O)O)CC(=O)O` [EDTA, ethylenediaminetetraacetic acid], the “effect on rotavirus particles” value [2] is given as “single-shelled, double-layered, non-infectious viral particles”.
For `CNC(=O)[C@H](Cc1c[nH]c2ccccc12)NC(=O)[C@@H](CC(=O)NO)CC(C)C` [GM6001], the “concentration at which inhibition” value [1] is given as 5 mM.
For `COc1ccc(S(=O)(=O)N2Cc3ccccc3C[C@@H]2C(=O)NO)cc1` [MMP-8 inhibitor I], the “concentration at which inhibition” value [1] is listed as 5 mM.
In the case of `O=C(O)c1ccccn1` [picolinic acid], the “effect on HSV-2 infected HF cells” value [3] is given as “cause apoptosis of HF infected cells”.
